From ChEMBL document CHEMBL3991601, “The target landscape of clinical kinase drugs” (Science, 2017) come the findings set out here.

The target of test [1] is T1, Inhibitor of nuclear factor kappa-B kinase subunit epsilon (Homo sapiens, UniProt Q14164).
T1 sequence (Q14164 whole entry): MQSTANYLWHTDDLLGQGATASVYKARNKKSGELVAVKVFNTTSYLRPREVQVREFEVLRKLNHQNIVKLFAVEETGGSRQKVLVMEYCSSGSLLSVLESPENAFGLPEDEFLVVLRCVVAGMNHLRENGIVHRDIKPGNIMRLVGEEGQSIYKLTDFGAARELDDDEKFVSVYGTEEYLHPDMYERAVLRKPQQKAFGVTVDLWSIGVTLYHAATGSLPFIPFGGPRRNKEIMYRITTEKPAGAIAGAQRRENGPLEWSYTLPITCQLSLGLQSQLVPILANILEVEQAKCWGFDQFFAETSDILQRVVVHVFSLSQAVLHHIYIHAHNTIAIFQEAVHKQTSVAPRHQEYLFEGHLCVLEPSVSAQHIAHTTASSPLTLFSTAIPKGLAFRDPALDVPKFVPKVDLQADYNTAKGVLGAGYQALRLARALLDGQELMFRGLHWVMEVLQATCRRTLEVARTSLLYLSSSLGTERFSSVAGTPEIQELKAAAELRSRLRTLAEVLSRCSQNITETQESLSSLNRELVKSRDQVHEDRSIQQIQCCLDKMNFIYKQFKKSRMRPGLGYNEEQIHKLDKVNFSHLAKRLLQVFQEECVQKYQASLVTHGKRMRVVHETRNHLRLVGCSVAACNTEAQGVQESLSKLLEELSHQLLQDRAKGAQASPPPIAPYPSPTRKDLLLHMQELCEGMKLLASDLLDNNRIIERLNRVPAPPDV

For test [2], the target named is Mitogen-activated protein kinase 9 (Homo sapiens, UniProt P45984).
Another test has as its target T2, Activin receptor type-1B (Homo sapiens, UniProt P36896).
T2 sequence (P36896 whole entry): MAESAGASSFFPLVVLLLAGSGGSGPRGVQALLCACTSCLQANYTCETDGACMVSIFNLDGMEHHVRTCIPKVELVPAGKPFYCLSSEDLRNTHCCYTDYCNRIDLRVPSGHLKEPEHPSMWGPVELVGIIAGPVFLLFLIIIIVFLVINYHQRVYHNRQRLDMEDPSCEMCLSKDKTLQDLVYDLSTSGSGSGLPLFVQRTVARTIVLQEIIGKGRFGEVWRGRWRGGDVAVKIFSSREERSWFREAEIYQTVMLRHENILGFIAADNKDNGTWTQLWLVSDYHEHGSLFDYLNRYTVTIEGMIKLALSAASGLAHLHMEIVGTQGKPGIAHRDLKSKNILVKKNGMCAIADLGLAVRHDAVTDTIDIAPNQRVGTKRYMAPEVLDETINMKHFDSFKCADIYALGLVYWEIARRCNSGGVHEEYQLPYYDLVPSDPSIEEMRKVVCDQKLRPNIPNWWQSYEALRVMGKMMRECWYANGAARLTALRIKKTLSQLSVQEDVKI

In test [3] the target is T3, Peroxisomal acyl-coenzyme A oxidase 1 (Homo sapiens, UniProt Q15067).
T3 sequence (Q15067 whole entry): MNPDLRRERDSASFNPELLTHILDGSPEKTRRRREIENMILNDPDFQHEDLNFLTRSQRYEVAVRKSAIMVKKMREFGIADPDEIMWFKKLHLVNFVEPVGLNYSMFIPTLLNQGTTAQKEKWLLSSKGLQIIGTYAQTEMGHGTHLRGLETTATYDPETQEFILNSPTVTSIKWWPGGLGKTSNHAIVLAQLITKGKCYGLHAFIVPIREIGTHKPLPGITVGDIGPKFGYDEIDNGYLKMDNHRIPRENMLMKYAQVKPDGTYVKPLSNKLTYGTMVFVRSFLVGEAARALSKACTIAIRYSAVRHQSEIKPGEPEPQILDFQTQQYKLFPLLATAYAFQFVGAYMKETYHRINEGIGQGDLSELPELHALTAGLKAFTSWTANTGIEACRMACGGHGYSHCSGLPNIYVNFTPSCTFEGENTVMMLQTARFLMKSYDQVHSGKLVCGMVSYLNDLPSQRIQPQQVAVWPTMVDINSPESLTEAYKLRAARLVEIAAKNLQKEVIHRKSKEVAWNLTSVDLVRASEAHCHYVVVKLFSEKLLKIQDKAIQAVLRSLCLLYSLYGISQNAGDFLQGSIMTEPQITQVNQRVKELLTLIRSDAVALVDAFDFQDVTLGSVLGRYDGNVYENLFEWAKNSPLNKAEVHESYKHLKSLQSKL

The target in test [4] is Serine/threonine-protein kinase/endoribonuclease IRE2 (Homo sapiens, UniProt Q76MJ5).
The next test concerns the target Myosin-14 (Homo sapiens, UniProt Q7Z406).
Test [5] addresses Cyclin-dependent kinase 5 (Homo sapiens, UniProt Q00535).
The target of test [6] is Serine/threonine-protein kinase N2 (Homo sapiens, UniProt Q16513).
The target in test [7] is T4, Interleukin-1 receptor-associated kinase 4 (Homo sapiens, UniProt Q9NWZ3).
T4 sequence (Q9NWZ3 whole entry): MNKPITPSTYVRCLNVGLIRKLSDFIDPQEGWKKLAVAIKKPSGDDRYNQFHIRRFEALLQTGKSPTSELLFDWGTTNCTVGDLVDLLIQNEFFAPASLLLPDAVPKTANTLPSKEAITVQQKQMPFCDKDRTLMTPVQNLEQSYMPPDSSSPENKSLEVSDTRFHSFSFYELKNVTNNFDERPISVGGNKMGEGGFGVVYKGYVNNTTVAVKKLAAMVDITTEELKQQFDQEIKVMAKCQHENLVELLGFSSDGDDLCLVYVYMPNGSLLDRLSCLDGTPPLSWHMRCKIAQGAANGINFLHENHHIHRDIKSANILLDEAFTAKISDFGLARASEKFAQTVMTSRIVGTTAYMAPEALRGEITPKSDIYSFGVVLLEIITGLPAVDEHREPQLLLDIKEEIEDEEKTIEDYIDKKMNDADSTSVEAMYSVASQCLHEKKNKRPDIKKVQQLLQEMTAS

The target in test [8] is Mitogen-activated protein kinase 10 (Homo sapiens, UniProt P53779).

The source made the active and inactive calls. For most assays here, no stated cut-off is given here; in the data, actives have a measured Kd and inactives only a lower limit.

Chain of Mitogen-activated protein kinase 10 (P53779 whole entry): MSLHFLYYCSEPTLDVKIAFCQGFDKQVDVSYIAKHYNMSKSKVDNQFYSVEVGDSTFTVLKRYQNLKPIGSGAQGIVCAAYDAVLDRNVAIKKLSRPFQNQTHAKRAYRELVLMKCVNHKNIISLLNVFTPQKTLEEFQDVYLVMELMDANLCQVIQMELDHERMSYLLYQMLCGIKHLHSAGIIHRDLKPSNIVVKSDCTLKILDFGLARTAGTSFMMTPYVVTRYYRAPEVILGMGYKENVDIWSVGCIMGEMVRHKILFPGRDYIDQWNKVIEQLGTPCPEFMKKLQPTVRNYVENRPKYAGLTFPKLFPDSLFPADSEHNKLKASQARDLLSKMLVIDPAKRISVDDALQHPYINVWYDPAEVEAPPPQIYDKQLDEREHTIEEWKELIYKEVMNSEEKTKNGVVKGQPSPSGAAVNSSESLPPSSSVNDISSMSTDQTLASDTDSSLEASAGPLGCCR
Chain of Cyclin-dependent kinase 5 (Q00535 whole entry): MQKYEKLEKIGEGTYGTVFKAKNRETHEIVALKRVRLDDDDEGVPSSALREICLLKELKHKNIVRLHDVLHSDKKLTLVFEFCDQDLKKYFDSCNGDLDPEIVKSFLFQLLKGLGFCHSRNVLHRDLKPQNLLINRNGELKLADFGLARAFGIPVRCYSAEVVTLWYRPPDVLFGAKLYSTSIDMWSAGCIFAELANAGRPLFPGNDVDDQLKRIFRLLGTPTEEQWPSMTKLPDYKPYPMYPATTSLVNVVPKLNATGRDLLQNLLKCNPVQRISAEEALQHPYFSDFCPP
Chain of Mitogen-activated protein kinase 9 (P45984 whole entry): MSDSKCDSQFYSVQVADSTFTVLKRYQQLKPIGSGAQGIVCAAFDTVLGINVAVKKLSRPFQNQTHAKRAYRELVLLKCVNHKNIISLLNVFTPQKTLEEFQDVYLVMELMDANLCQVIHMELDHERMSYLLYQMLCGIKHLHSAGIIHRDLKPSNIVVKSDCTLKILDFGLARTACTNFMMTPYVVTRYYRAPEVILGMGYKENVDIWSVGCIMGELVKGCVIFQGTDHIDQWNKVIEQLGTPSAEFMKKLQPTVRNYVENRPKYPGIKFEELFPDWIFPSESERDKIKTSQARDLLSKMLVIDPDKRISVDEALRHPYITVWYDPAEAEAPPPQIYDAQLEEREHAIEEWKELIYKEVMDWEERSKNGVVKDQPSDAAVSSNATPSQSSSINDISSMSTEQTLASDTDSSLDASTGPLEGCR
Chain of Myosin-14 (Q7Z406 whole entry): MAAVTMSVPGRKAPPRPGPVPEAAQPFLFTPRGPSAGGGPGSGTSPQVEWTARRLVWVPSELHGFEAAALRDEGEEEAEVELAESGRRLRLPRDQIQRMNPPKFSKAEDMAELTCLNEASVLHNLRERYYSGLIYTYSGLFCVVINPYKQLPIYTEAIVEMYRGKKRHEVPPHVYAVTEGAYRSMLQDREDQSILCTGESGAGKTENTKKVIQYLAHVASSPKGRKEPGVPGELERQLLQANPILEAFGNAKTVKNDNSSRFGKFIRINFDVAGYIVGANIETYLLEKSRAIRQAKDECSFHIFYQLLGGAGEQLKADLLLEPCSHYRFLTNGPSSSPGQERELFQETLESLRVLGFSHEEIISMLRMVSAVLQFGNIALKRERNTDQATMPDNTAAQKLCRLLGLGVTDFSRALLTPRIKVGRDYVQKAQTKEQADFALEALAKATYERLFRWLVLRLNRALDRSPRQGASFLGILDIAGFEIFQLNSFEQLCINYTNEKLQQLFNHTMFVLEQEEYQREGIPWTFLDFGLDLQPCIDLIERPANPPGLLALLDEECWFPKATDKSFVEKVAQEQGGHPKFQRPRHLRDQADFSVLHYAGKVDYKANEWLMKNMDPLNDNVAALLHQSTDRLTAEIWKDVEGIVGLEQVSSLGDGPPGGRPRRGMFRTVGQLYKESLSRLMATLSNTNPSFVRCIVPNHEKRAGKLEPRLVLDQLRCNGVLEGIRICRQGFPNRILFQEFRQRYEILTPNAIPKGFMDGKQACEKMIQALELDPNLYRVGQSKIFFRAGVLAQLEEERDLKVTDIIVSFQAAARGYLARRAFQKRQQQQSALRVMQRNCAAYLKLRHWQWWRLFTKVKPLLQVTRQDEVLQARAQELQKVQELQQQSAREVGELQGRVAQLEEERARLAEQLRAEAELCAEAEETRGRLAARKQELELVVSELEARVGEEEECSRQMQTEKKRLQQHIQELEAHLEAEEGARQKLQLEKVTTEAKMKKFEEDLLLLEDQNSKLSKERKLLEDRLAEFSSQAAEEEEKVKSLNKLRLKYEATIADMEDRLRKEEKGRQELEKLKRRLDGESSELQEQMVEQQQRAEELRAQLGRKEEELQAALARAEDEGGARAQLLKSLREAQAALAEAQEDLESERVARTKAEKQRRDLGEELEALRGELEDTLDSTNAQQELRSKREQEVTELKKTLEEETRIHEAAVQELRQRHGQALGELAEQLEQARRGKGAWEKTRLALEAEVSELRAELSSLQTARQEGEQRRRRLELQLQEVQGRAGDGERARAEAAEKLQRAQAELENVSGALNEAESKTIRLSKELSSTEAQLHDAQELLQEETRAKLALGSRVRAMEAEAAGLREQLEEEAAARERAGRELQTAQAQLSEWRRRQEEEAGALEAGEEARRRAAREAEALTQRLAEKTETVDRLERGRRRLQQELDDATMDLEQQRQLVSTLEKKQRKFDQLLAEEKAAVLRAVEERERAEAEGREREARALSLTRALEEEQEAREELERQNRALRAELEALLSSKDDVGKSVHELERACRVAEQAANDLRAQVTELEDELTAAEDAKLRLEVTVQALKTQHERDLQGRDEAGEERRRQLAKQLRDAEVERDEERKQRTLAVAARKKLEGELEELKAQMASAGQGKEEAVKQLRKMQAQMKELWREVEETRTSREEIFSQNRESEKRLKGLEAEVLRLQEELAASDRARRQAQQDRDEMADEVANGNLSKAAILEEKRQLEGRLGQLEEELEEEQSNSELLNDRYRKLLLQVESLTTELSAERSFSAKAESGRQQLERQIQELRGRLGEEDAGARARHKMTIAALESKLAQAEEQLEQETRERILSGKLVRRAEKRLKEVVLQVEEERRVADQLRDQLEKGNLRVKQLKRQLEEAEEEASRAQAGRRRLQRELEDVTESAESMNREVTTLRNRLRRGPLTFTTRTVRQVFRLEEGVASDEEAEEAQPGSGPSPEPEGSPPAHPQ
Chain of Serine/threonine-protein kinase N2 (Q16513 whole entry): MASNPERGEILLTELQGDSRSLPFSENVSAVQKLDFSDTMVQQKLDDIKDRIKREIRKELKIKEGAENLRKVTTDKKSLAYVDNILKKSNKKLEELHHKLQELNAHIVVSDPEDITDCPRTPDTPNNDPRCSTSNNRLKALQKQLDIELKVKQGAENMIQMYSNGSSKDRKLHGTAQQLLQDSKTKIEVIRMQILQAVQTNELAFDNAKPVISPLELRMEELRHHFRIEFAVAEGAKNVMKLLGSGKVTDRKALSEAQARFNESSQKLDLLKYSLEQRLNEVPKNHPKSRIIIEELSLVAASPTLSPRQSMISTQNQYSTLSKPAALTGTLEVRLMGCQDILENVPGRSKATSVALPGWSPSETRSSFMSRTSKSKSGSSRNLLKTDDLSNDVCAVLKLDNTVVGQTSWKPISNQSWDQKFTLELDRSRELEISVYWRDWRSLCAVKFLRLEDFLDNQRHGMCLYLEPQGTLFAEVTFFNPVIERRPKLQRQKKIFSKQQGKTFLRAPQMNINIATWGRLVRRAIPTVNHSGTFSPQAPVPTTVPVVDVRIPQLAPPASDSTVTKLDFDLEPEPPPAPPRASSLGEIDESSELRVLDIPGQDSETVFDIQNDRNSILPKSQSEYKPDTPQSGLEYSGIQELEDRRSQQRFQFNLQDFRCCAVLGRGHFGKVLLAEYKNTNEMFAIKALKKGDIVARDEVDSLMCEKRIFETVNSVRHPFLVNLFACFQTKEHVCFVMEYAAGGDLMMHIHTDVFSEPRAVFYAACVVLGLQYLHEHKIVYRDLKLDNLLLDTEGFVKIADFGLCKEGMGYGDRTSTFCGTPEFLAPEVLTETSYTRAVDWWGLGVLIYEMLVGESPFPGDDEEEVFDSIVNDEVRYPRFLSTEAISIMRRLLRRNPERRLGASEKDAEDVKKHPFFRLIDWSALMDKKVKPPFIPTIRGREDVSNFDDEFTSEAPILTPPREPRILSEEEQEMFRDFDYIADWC
Chain of Serine/threonine-protein kinase/endoribonuclease IRE2 (Q76MJ5 whole entry): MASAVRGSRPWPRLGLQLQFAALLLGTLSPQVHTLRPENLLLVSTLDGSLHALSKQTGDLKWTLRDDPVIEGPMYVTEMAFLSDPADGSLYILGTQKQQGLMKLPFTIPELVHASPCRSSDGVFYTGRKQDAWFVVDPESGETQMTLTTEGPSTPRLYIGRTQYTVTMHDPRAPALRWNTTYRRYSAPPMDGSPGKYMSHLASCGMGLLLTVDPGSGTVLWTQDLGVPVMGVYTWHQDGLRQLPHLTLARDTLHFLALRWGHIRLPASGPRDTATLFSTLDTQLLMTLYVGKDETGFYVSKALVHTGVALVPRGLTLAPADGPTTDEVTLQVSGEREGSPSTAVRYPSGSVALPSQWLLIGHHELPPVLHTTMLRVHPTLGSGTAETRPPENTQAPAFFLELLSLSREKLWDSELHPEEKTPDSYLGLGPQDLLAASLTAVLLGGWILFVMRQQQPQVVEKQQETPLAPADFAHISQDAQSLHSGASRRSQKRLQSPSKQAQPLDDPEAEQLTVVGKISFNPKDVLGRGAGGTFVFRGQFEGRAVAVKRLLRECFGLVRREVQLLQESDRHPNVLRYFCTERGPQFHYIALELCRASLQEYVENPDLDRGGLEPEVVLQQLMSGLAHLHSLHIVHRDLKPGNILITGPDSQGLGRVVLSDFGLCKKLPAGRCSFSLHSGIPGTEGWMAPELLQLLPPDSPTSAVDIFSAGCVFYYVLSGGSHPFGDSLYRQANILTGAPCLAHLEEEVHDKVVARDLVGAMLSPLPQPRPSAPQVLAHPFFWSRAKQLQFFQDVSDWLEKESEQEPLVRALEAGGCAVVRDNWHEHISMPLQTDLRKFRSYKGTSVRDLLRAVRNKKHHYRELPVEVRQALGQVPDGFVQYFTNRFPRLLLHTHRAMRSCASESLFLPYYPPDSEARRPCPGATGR

With `O=S(=O)(c1cccc2c(O)nccc12)N1CCCNCC1` [HYDROXYFASUDIL], the Kd (in test [1]; in test [2]; at Activin receptor type-1B; in test [3]; in test [4]; on Myosin-14) was > 30 µM (inactive) throughout. Further, the Kd is > 30 µM (inactive) in test [5], 2.26 µM (active) in test [6], > 30 µM (inactive) in test [7] and > 30 µM (inactive) in test [8].

In the case of `Cc1c(NC(=O)OC[C@@H]2COCCN2)cn2ncnc(Nc3ccc4c(cnn4Cc4cccc(F)c4)c3)c12` [AC-480], the Kd (in test [1]; in test [2]; at Activin receptor type-1B; in test [3]; in test [4]; at Myosin-14) was > 30 µM (inactive) each time. Further, the Kd in test [5], in test [6], in test [7] and in test [8] was > 30 µM (inactive) in each case.
